Measured values published in US10106491B2, “Substituted biaryl alkyl amides” (BioTheryX, Inc., priority 2011, dated 2018).

Experiments:
[1] = system: SK-MEL-28 (metastatic melanoma) cell line; assay: SK-MEL-28 proliferation assay (MTS, percent viability vs DMSO); format: cell-based; settings: 72 h, FIG. 1
Procedure: (§1) Proliferation assays were conducted to assess the effects of the compounds described herein on the growth rate of neoplastic cells. For each of the proliferation assays described herein, SK-MEL-28, MDA-MB-468 or Panc-1 cells were grown in RPMI supplemented with 10% FBS and plated onto sterile 96-well tissue culture plates at 20,000 cells per well and allowed to attach overnight. Compounds B1 through B14 were added at 20 μM and 10 μM respectively in the SK-MEL-28 proliferation assay (FIG. 1). Compounds B3, B5, B7, B11 and B12 were added at 20 μM and 10 μM respectively for the MDA-MB-468 (FIG. 2A) and Panc-1 proliferation assays (FIG. 2B). Plates were incubated for 72 h (37° C., 5% CO2). Percent viability compared to DMSO control was determined using an MTS assay (CellTiter 96 Aqueous, Promega) according to the manufacturer's standard protocol. The standard used in the SK-MEL-28 assay is MG132, a proteasome inhibitor, at 10 uM concentration. It was used as a positive control for cell killing. All the assays are referenced to DMSO as the control at 100% proliferation.

[2] = system: MDA-MB-468-NFkB-Luc2p cell line; assay: TNF-α induced NFkB reporter assay (luciferase); format: cell-based; settings: 1 h before 10 ng/ml TNF-α for 6 h, FIG. 3; for result in TNF-α induced NFkB reporter assay: tested at 20 μM and 5 μM
Procedure: The effects of the compounds described herein on the activation of TNF-mediated pathways were assessed using an MDA-MB-468NFkB-Luc2p reporter cell line (FIG. 3). To construct this cell line, MDA-MB-468 cells were transfected with pGL4.32[luc2P/NF-kB-RE/Hygro] vector (Promega) using TransFast transfection reagent (Promega) according to manufacturer's standard protocol. Briefly, cells were grown in RPMI supplemented with 10% FBS and plated onto sterile 6-well plates (Nunc). When cells became ˜75% confluent, media in each well was removed and replaced with 1 mL RPMI (no FBS) containing […] vector and TransFast for 1 h at 37° C. 2 mL of RPMI with FBS is then added to the well and after 24 h, 500 ug/ml of hygromycin was added for selection to generate a stable reporter cell line.
Stable MDA-MB-468-NFkB-Luc2p cells were plated onto optical-bottom, white wall 96-well plates at 10,000 cells per well and allowed to attach overnight. Compounds B1 through B14 were added at 20 μM and 5 μM respectively for 1 h prior to treatment with 10 ng/ml of recombinant human TNF-α for 6 h. Luciferase signal was determined using the Luciferase Assay System (Promega) and a luminometer.

[3] = system: MDA-MB-468 (breast cancer) cell line; assay: MDA-MB-468 proliferation assay (MTS); format: cell-based; settings: for growth rate: 72 h, DMSO control = 100%
Procedure: as §1

[4] = system: Panc-1 (pancreatic cancer) cell line; assay: Panc-1 proliferation assay (MTS); format: cell-based; settings: for growth rate: 72 h, DMSO control = 100%
Procedure: as §1

hCdc34 = target: T1, hCdc34 (Homo sapiens, UniProt P49427); settings: Ceccarelli et al., Cell 145:1075-1087, 2011; cited from earlier work
T1 sequence (P49427 1-236): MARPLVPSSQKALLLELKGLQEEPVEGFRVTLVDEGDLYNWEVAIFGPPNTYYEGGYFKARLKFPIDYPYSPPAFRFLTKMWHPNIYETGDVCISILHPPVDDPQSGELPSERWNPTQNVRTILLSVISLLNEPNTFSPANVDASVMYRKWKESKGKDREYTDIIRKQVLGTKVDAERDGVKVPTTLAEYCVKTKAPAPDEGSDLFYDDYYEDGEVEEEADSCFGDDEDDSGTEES

[5] = SK-MEL-28, tested at 20 μM and 10 μM

SMILES | inhibitory effect on proliferation [1, 5] | result in TNF-α induced NFkB reporter assay [2] | growth rate ([3]; MDA-MB-468, 20 μM) [%] | other results
CCOC(=O)C(O)C(O)C(Cc1ccc(-c2cc(Cl)cc(Cl)c2)cc1)NC(=O)CNC(=O)OC(C)(C)C (centres unmarked) [Compound B7] | good inhibitory effect | – | – | –
CCOC(=O)C(O)C(O)C(Cc1ccc(-c2cc(Cl)cc(Cl)c2)cc1)NC(=O)[C@H]1CCCO1 (some centres unmarked) [Compound B4] | – | good results | – | –
CCOC(=O)C(O)C(O)C(Cc1ccc(-c2cc(Cl)cc(Cl)c2)cc1)NC(=O)[C@H](C)N (some centres unmarked) [Compound B12] | – | – | 11.0 | fold more effective than the control ([1]; SK-MEL-28, 20 μM): about 20 fold; inhibitory effect on proliferation ([1]; SK-MEL-28, 20 μM): excellent inhibitory effect; growth rate ([4]; Panc-1, 20 μM): 24.4%; inhibitory effect on TNF-α induced NFkB luciferase signal ([2]; 20 μM): excellent inhibitory effect
CCOC(=O)C(O)C(O)C(Cc1ccc(-c2cc(Cl)cc(Cl)c2)cc1)NC(=O)CN (centres unmarked) [Compound B11] | good inhibitory effect | – | – | –
CCOC(=O)C(O)C(O)C(Cc1ccc(-c2cc(Cl)cc(Cl)c2)cc1)NC(=O)[C@@H]1CCCN1C(=O)OC(C)(C)C (some centres unmarked) [Compound B5] | good inhibitory effect | good results | 33.5 | –
CCOC(=O)C(O)C(O)C(Cc1ccc(-c2cc(Cl)cc(Cl)c2)cc1)NC(=O)CCl (centres unmarked) [Compound B3] | good inhibitory effect | – | 5.5 | growth rate ([3]; MDA-MB-468, 10 μM): 6.0%; inhibitory effect on proliferation ([3]; MDA-MB-468, at both concentrations (20 μM and 10 μM)): good inhibitory effect; growth rate ([4]; Panc-1, 10 μM): 4.8%; growth rate ([4]; Panc-1, 20 μM): 5.2%; inhibitory effect on proliferation ([4]; Panc-1, at both concentrations (20 μM and 10 μM)): good inhibitory effect
CCOCC(=O)NC(Cc1ccc(-c2cc(Cl)cc(Cl)c2)cc1)C(O)C(O)C(=O)OCC (centres unmarked) [Compound B1] | – | good results | – | –
COCC(=O)N[C@@H](Cc1ccc(-c2cc(Cl)cc(Cl)c2)cc1)[C@H](O)[C@@H](O)C(=O)O [CC0651] | – | – | – | inhibition of hCdc34 (hCdc34): inhibits
